Source: publication PMC4686834, “Autocrine selection of a GLP-1R G-protein biased agonist with potent antidiabetic effects” (Nature Communications, 2015)
*1 amine or outer side, *2 acyl side, *3 side chain or, on linkers, in order; H or OH if unused. Where a SMILES comes first, the peptide text is derived from it. Bridges are numbered along the chain shown (N, C = ends). [ ]: non-standard residue; d: D form. The star is where a group is joined. Leu(3R-OH,Nα-propionyl) = CCC(=O)N[C@H](C(=O)*)[C@H](O)C(C)C; X1 = CC(C)[C@@H](O[*:3])[C@H](N[*:1])C(=O)[*:2]; NMeT = CN[C@H](C(=O)O)[C@@H](C)O; dPhLac = O=C(O)[C@H](O)Cc1ccccc1; NMeA = CN[C@@H](C)C(=O)O; NMeDha = C=C(NC)C(=O)O

Experiments:
human GLP-1R [1] = experiment: Ligand bias, equiactive comparison with Ex4 as reference; type: cell-based
human GLP-1R [2] = target: T1, human GLP-1R (Homo sapiens, UniProt P43220); experiment: Intracellular calcium mobilization (Gαq), FLIPR, CHO cells expressing the human GLP-1R; type: cell-based; conditions: 1 μM FR900359 in loading medium; CHO-GLP-1R expressing cells
T1 construct: expressed in transfected cells
T1 sequence (P43220 24-463): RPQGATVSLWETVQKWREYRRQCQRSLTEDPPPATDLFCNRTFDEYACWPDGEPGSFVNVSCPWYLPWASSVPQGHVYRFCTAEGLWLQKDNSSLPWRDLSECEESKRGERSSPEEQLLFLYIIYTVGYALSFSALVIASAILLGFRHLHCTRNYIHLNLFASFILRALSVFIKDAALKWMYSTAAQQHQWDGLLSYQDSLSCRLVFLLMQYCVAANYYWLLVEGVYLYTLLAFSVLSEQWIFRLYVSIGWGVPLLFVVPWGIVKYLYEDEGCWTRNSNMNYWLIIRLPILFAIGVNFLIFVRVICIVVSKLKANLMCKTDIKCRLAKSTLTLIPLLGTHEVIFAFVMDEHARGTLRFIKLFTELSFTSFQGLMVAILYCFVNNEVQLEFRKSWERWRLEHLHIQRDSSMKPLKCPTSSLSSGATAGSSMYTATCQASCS
Protocol: The stable CHO cell line (generated in-house using CHO-K1 cell line purchased from ATCC) expressing a functional human GLP-1R was cultured in F12 medium (Gibco) supplemented with 10% fetal bovine serum and 500 μg ml^−1 geneticin.

| SMILES | Ligand bias (in words) (human GLP-1R [1]) | Bias factor (β), Gq vs β-arrestin 1 (human GLP-1R [1]; mean ± s.d.) | Bias factor (β), Gq vs β-arrestin 2 (human GLP-1R [1]; mean ± s.d.) | Bias factor (β), Gs vs β-arrestin 2 (human GLP-1R [1]; mean ± s.d.) | Bias factor (β), Gs vs β-arrestin 1 (human GLP-1R [1]; mean ± s.d. of a typical experiment performed three times) | Inhibition of P5-induced increase in [Ca2+]i (human GLP-1R [2]) |
| --- | --- | --- | --- | --- | --- | --- |
| CC[C@H](C)[C@H](NC(=O)[C@H](Cc1ccccc1)NC(=O)[C@H](CCC(=O)O)NC(=O)[C@H](CCCCN)NC(=O)[C@H](C)NC(=O)[C@H](C)NC(=O)[C@H](CCC(N)=O)NC(=O)CNC(=O)[C@H](CCC(=O)O)NC(=O)[C@H](CC(C)C)NC(=O)[C@H](Cc1ccc(O)cc1)NC(=O)[C@H](CO)NC(=O)[C@H](CO)NC(=O)[C@@H](NC(=O)[C@H](CC(=O)O)NC(=O)[C@H](CO)NC(=O)[C@@H](NC(=O)[C@H](Cc1ccccc1)NC(=O)[C@@H](NC(=O)CNC(=O)[C@H](CCC(=O)O)NC(=O)[C@H](C)NC(=O)[C@@H](N)Cc1c[nH]cn1)[C@@H](C)O)[C@@H](C)O)C(C)C)C(=O)N[C@@H](C)C(=O)N[C@@H](Cc1c[nH]c2ccccc12)C(=O)N[C@@H](CC(C)C)C(=O)N[C@H](C(=O)N[C@@H](CCCCN)C(=O)NCC(=O)N[C@@H](CCCNC(=N)N)C(N)=O)C(C)C [GLP-1, glucagon-like peptide-1] | did not demonstrate detectable bias | 0.16 ± 0.13 | 0.2 ± 0.08 | -0.04 ± 0.11 | -0.08 ± 0.11 |  |
| C=C1C(=O)N[C@@H](C)C(=O)N(C)[C@@H](C)C(=O)N[C@@H]([C@H](OC(=O)[C@@H](NC(=O)CC)[C@H](O)C(C)C)C(C)C)C(=O)N(C)[C@@H]([C@@H](C)OC)C(=O)O[C@H](C(C)C)[C@H](NC(C)=O)C(=O)O[C@H](Cc2ccccc2)C(=O)N1C [FR900359] (Ac-[X1][dPhLac][NMeDha]A[NMeA][X1](Leu(3R-OH,Nα-propionyl))[NMeT](Me); ester 1-C) |  |  |  |  |  | inhibited |
